IC50 data for three compounds are collected here from BindingDB's records for doi:10.1021/jm0102203 (Glaxosmithkline, 2001).

Each structure is given as a SMILES string. pIC50: −log10 of the molar value. Bounds are passed on as bounds.

As usually defined, the pIC50 is −log10 of the IC50, conventionally taken in molar units.

A short description of the assay: Ability to inhibit Human cytomegalovirus (HCMV) protease activity.
For the compound `C[C@@H]1C(=O)N(c2ccc([N+](=O)[O-])cc2[N+](=O)[O-])[C@H]2CCN(C(=O)OCc3ccccc3)C12` (stereo partly drawn) [4-(2,4-Dinitro-phenyl)-6-methyl-5-oxo-hexahydro-pyrrolo[3,2-b]pyrrole-1-carboxylic acid benzyl ester], the pIC50 was 3.30.

In turn, `C[C@@H]1C(=O)N(C(=O)n2cccc2)[C@H]2CCN(C(=O)OCc3ccccc3)C12` (stereo partly drawn) [6-Methyl-5-oxo-4-(pyrrole-1-carbonyl)-hexahydro-pyrrolo[3,2-b]pyrrole-1-carboxylic acid benzyl ester] gave a negative-log IC50 (pIC50) of 3.60.

Consider `CC(=O)C=CN1C(=O)[C@@H](C)C2[C@@H]1CCN2C(=O)OCc1ccccc1` (stereo partly drawn) [6-Methyl-5-oxo-4-(3-oxo-but-1-enyl)-hexahydro-pyrrolo[3,2-b]pyrrole-1-carboxylic acid benzyl ester], for which the pIC50 is less than 3.30.
